The nature of series [1]: Sedimentation equilibrium analytical ultracentrifugation (monomer-dimer equilibrium). The series is classed as physicochemical. The following applies: monomer-dimer fit, 5° C., pH 7; read-out: KD (95% confidence limits). As for the experimental part:
Sedimentation equilibrium experiments were conducted at 5° C. in a Beckman-Optima XL-I analytical ultracentrifuge fitted with an An-60 Ti rotor. A […] peptide solution at […] in 25 mM K phosphate buffer pH 7 containing 0.1 M KCl was equilibrated for 48 h at speeds of 40 000, 47 500/50 000 and 55 000/60 000 rpm. […] The molecular weights (Table 2) and partial specific volumes (range 0.7417 to 0.7461) of the peptides were calculated from their amino-acid sequences, and the viscosity of the buffer at 5° C. was taken to be […].

A short description of series [2]: Thermal unfolding followed by CD spectroscopy. It counts as physicochemical. To be noted: comparator named in the value. As for the experimental part: (§1) Circular dichroism spectroscopy. CD measurements were made using a JASCO J-715 spectropolarimeter fitted with a Peltier temperature controller. Peptide solutions were prepared in 25 mM potassium phosphate buffer at pH 7 and were examined in 1 mm or 1 cm quartz cuvettes (with stirring). Spectra were recorded at 5° C. using 1 nm intervals, a 1 nm bandwidth and 4 sec response time. Thermal unfolding curves were recorded through 1° C. min^−1 ramps using a 2 nm bandwidth, averaging the signal for 16 s every 1° C. intervals. After baseline correction, ellipticities in mdeg were converted to molar ellipticities (deg cm^2 dmol-res-^−1) by normalising for the concentration of peptide bonds.

The nature of series [3]: Circular dichroism spectroscopy (helicity). To be noted: pH 7; comparator named in the value. It counts as physicochemical. As for the experimental part:
as §1
(CD spectra are sensitive to the conformation of chiral molecules.)

Series [4] is described as follows: Conformational switching of oxidised CSP-3 to the reduced form, CD time scan at 222 nm. It counts as physicochemical. To be noted: 20-fold excess (2 mM). As for the experimental part:
The molar ellipticity at 222 nm was recorded. To induce the switch of the peptide from its oxidised to its reduced form a reducing agent for the disulphide bond was added. Two reducing agents were used for comparison, DTE and β-mercaptoethanol, in 20-fold excess (2 mM). […] The time taken to initiate the scan after addition of reducing agent was noted. […] A wavelength scan (190-260 nm) was run for each sample once the switch experiment was complete to record the spectrum of the reduced peptide. The data obtained from the time course reaction was analysed using the data analysis program Origin (v. 11) (see FIG. 5) A single exponential curve for a first order reaction has been fitted to the data from a switch experiment, using the data analysis program Origin. The equation for the curve is: y=Ae^−kt+B where A=amplitude of signal • B=[…] • k=rate constant • t=time […]

Series [5] deals with the molecule itself. As to the kind of experiment: sedimentation equilibrium (AUC), self-association. As for the experimental part: (§2) Sedimentation equilibrium experiments were conducted at 5° C. in a Beckman-Optima XL-I analytical ultracentrifuge fitted with an An-60 Ti rotor. A […] peptide solution at […] in 25 mM K phosphate buffer pH 7 containing 0.1 M KCl was equilibrated for 48 h at speeds of 40 000, 47 500/50 000 and 55 000/60 000 rpm. Data were fitted simultaneously assuming either a single ideal species or a monomer-dimer equilibrium and fixed monomer molecular weight, using routines in the Beckman-Optima XL-A/XLI-I data analysis software (v4.0). The molecular weights (Table 2) and partial specific volumes (range 0.7417 to 0.7461) of the peptides were calculated from their amino-acid sequences, and the viscosity of the buffer at 5° C. was taken to be […].

Series [6] concerns the molecule itself. As to the kind of experiment: sedimentation equilibrium AUC, poor monomer-dimer fit, 5 C (homodimerisation). As for the experimental part: as §2
However, the reduced form of the peptide, CSP-2r, was only partially folded as judged from CD spectra (consistent with only ˜20% helix) (see FIG. 3A). […] (see FIG. 3B). […] The data fitted best assuming a single ideal species, and returned a molecular weight close to that expected for monomer (see Table 2). Fits to monomer-dimer were poor and gave weak dissociation constants in the 10-100 mM range.

Where a SMILES comes first, the peptide text is derived from it. Bridges are numbered along the chain shown (N, C = ends). Where no end group is shown, it is not given here. The star is where a group is joined. Cam = NC(=O)C*

As to “CGGEIRALKYEIARLKQ----KKRALEQKIAALEGGC [CSP-1r]”, the Kd in series [1] was 0.033 mM. For the molecule `CC[C@H](C)[C@@H]1NC(=O)[C@H](CCCCN)NC(=O)[C@H](CCC(N)=O)NC(=O)[C@H](CCC(=O)O)NC(=O)[C@H](CC(C)C)NC(=O)[C@H](C)NC(=O)[C@H](CCCNC(=N)N)NC(=O)[C@H]([C@@H](C)CC)NC(=O)[C@H](CCCCN)NC(=O)[C@H](C)NC(=O)[C@H](CCC(N)=O)NC(=O)[C@H](CCCCN)NC(=O)[C@H](C)NC(=O)[C@H](CCC(N)=O)NC(=O)[C@H](CCCCN)NC(=O)[C@H](CC(C)C)NC(=O)[C@H](CCCNC(=N)N)NC(=O)[C@H](C)NC(=O)[C@H]([C@@H](C)CC)NC(=O)[C@H](CCC(=O)O)NC(=O)[C@H](Cc2ccc(O)cc2)NC(=O)[C@H](CCCCN)NC(=O)[C@H](CC(C)C)NC(=O)[C@H](C)NC(=O)[C@H](CCCNC(=N)N)NC(=O)[C@H]([C@@H](C)CC)NC(=O)[C@H](CCC(=O)O)NC(=O)CNC(=O)CNC(=O)[C@@H](N)CSSC[C@@H](C(=O)O)NC(=O)CNC(=O)CNC(=O)[C@H](CCC(=O)O)NC(=O)[C@H](CC(C)C)NC(=O)[C@H](C)NC(=O)[C@H](C)NC1=O` [CSP-3o] (H-CGGEIRALKYEIARLKQAKQAKIRALEQKIAALEGGC-OH; disulfide 1-37; N-terminus and C-terminus assumed), the “thermal stability in words” value in series [2] was “marginally improved helicity and thermal stability over CSP-2o”. Besides, in series [3], the “helicity compared with other designs (CD signal at 222 nm)” value is “marginally improved helicity and thermal stability over CSP-2o”. Further, the “time taken for reduction to complete” value was 75 min in series [4] (with DTE) and 180 min in series [4] (with βME).

B1: CSP-2o (intra-molecularly oxidised) (peptide)
peptide: CGGEIRALKYEIARLKQGGGGKKRALEQKIAALEGGC
modifications: disulfide 1-37
notes: also called design iteration 2, oxidised; CSP-4o (Maya's nomenclature)
As to B1, the binding result in series [5] was “no binding”.

B2: CSP-2r (reduced and alkylated) (peptide)
peptide: C(Cam)GGEIRALKYEIARLKQGGGGKKRALEQKIAALEGGC(Cam)
notes: CSP-1 with a tetraglycine insert; also called design iteration 2, reduced & alkylated; CSP-4a (Maya's nomenclature)
As to B2, the Kd in series [6] is 10 to 100 mM.

In general, Kd refers to the concentration at which binding is half-saturated.
